The numbers were not newly measured in publication PMC4360375 (Journal of Medicinal Chemistry, 2015), which cites them from elsewhere.

Each structure is given as a SMILES string. Read-outs that look alike come from different tables or passages of the source.

The data set deals with GABA uptake, rat synaptosome. Particulars: literature data set, cited from earlier work.

On to `Cc1ccccc1C(=COCCN1CCC=C(C(=O)O)C1)c1ccccc1C` [An_1999/3_70, O(\C=C(\c1ccccc1C)/c1ccccc1C)CCN1CC(=CCC1)C(O)=O], for which the negative-log IC50 (pIC50) (commonly −log10 of the IC50, conventionally taken in molar units) (ref 10.1021/jm981027k) is recorded as 7.585. Consider `Cc1ccccc1/C(=C\OCCN1CCC[C@@H](C(=O)O)C1)c1cccc(F)c1` [An_1999/3_71, Fc1cc(ccc1)/C(=C/OCCN1C[C@@H](CCC1)C(O)=O)/c1ccccc1C], for which the pIC50 (ref 10.1021/jm981027k) was 7.523. On to `Cc1ccccc1/C(=C\OCCN1CCC=C(C(=O)O)C1)c1ccccc1F` [An_1999/3_72, Fc1ccccc1/C(=C/OCCN1CC(=CCC1)C(O)=O)/c1ccccc1C], for which, where the note is “ref 10.1021/jm981027k”, the pIC50 was 7.699. On to `O=C(O)[C@@H]1CCCN(CCO/C=C(\c2ccccc2)c2ccccc2Cl)C1` [An_1999/3_73, Clc1ccccc1\C(=C\OCCN1C[C@@H](CCC1)C(O)=O)\c1ccccc1], for which, for the setting “ref 10.1021/jm981027k”, the pIC50 is 7.921.

As for `O=C(O)[C@@H]1CCCN(CCON=C(c2ccccc2Cl)c2ccccc2Cl)C1` [An_1999/3_74, Clc1ccccc1\C(=N\OCCN1C[C@@H](CCC1)C(O)=O)\c1ccccc1Cl], for the setting “ref 10.1021/jm981027k”, the pIC50 is 7.398.

As to `O=C(O)[C@@H]1CCCN(CCO/N=C(/c2cccc(F)c2)c2ccccc2F)C1` [An_1999/3_75, Fc1ccccc1\C(=N/OCCN1C[C@@H](CCC1)C(O)=O)\c1cc(F)ccc1], the pIC50 (ref 10.1021/jm981027k) is 6.658. `Cc1ccccc1/C(=C/OCCN1CCC[C@@H](C(=O)O)C1)c1cccc(F)c1` [An_1999/3_76, Fc1cc(ccc1)/C(=C\OCCN1C[C@@H](CCC1)C(O)=O)/c1ccccc1C]: for the setting “ref 10.1021/jm981027k”, the pIC50 is given as 7.301. As for `Cc1cc(F)ccc1C(=COCCN1CCC[C@@H](C(=O)O)C1)c1ccc(F)cc1C` [An_1999/3_77, Fc1cc(C)c(cc1)\C(=C\OCCN1C[C@@H](CCC1)C(O)=O)\c1ccc(F)cc1C], the negative logarithm of the IC50 (pIC50) (ref 10.1021/jm981027k) is reported as 7.222.

Consider `Cc1ccccc1/C(=C/OCCN1CCC=C(C(=O)O)C1)c1cccc(Cl)c1` [An_1999/3_78, Clc1cc(ccc1)/C(=C\OCCN1CC(=CCC1)C(O)=O)/c1ccccc1C], for which the pIC50 (ref 10.1021/jm981027k) is on record as 7.222. With `O=C(O)[C@@H]1CCCN(CCOC=C(c2ccc(F)cc2F)c2ccc(F)cc2F)C1` [An_1999/3_79, Fc1cc(F)ccc1\C(=C\OCCN1C[C@@H](CCC1)C(O)=O)\c1ccc(F)cc1F], the negative-log IC50 (pIC50) (ref 10.1021/jm981027k) is 6.886. Take `Cc1ccsc1C(=NOCCN1CCC[C@H](C(=O)O)C1)c1sccc1C` [An_1999/3_80, s1ccc(C)c1\C(=N\OCCN1C[C@H](CCC1)C(O)=O)\c1sccc1C]: the pIC50 (ref 10.1021/jm981027k) was 7.097. `Cc1ccsc1/C(=N\OCCN1CCC[C@@H](C(=O)O)C1)c1cccs1` [An_1999/3_81, s1ccc(C)c1\C(=N/OCCN1C[C@@H](CCC1)C(O)=O)\c1sccc1]: the pIC50 (ref 10.1021/jm981027k) was 7.155. Regarding `Cc1ccccc1/C(=N/OCCN1CCC[C@H](C(=O)O)C1)c1sccc1C` [An_1999/3_82, s1ccc(C)c1/C(=N\OCCN1C[C@H](CCC1)C(O)=O)/c1ccccc1C], the pIC50 (ref 10.1021/jm981027k) is recorded as 7.097.

Regarding `Cc1ccccc1/C(=N\OCCN1CCC[C@H](C(=O)O)C1)c1sccc1C` [An_1999/3_83, s1ccc(C)c1/C(=N/OCCN1C[C@H](CCC1)C(O)=O)/c1ccccc1C], the pIC50 (ref 10.1021/jm981027k) is reported as 6.886. Consider `Cc1cc(Cl)ccc1/C(=N/OCCN1CCC[C@@H](C(=O)O)C1)c1sccc1C` [An_1999/3_84, Clc1cc(C)c(cc1)\C(=N\OCCN1C[C@@H](CCC1)C(O)=O)\c1sccc1C], for which the pIC50 (ref 10.1021/jm981027k) is given as 7.046.

As to `Cc1ccsc1/C(=N\OCCN1CCC[C@@H](C(=O)O)C1)c1ccc(Cl)cc1Cl` [An_1999/3_85, Clc1cc(Cl)ccc1\C(=N\OCCN1C[C@@H](CCC1)C(O)=O)\c1sccc1C], the pIC50 (ref 10.1021/jm981027k) is on record as 7.523. As to `COc1cccc(/C(=N/OCCN2CCC[C@@H](C(=O)O)C2)c2sccc2C)c1` [An_1999/3_86, s1ccc(C)c1\C(=N/OCCN1C[C@@H](CCC1)C(O)=O)\c1cc(OC)ccc1], the pIC50 (ref 10.1021/jm981027k) was 7.046. Take `CCc1ccsc1C(=NOCCN1CCC[C@@H](C(=O)O)C1)c1sccc1CC` [An_1999/3_87, s1ccc(CC)c1\C(=N\OCCN1C[C@@H](CCC1)C(O)=O)\c1sccc1CC]: where the note is “ref 10.1021/jm981027k”, the pIC50 was 7.046. Consider `CCc1ccccc1C(=NOCCN1CCC=C(C(=O)O)C1)c1ccccc1CC` [An_1999/3_88, O(\N=C(\c1ccccc1CC)/c1ccccc1CC)CCN1CC(=CCC1)C(O)=O], for which the pIC50 (ref 10.1021/jm981027k) was 6.745. In the case of `Cc1ccccc1/C(=N\OCCN1CCC[C@@H](C(=O)O)C1)c1ccccc1F` [An_1999/3_89, Fc1ccccc1/C(=N/OCCN1C[C@@H](CCC1)C(O)=O)/c1ccccc1C], the pIC50 (ref 10.1021/jm981027k) was 7.398.

`Cc1ccccc1/C(=N\OCCN1CCC[C@@H](C(=O)O)C1)c1ccccc1Cl` [An_1999/3_90, Clc1ccccc1/C(=N/OCCN1C[C@@H](CCC1)C(O)=O)/c1ccccc1C]: the pIC50 (ref 10.1021/jm981027k) is reported as 6.699.

Turning to `Cc1ccccc1/C(=N\OCCN1CCC[C@H](C(=O)O)C1)c1cccc(Cl)c1` [An_1999/3_91, Clc1cc(ccc1)/C(=N/OCCN1C[C@H](CCC1)C(O)=O)/c1ccccc1C], under “ref 10.1021/jm981027k”, the pIC50 is listed as 7.046. For `Cc1ccccc1/C(=N\OCCN1CCC=C(C(=O)O)C1)c1cccc(Cl)c1` [An_1999/3_92, Clc1cc(ccc1)/C(=N/OCCN1CC(=CCC1)C(O)=O)/c1ccccc1C], the pIC50 (ref 10.1021/jm981027k) is recorded as 6.824.

With `O=C(O)[C@@H]1CCCN(CCON=C(c2cccc(Cl)c2)c2cccc(Cl)c2)C1` [An_1999/3_93, Clc1cc(ccc1)\C(=N\OCCN1C[C@@H](CCC1)C(O)=O)\c1cc(Cl)ccc1], the pIC50 (ref 10.1021/jm981027k) is reported as 6.509.

Regarding `O=C(O)[C@@H]1CCCN(CCON=C(c2ccc(F)cc2Cl)c2ccc(F)cc2Cl)C1` [An_1999/3_94, Clc1cc(F)ccc1\C(=N\OCCN1C[C@@H](CCC1)C(O)=O)\c1ccc(F)cc1Cl], the pIC50 (ref 10.1021/jm981027k) is on record as 7. Regarding `CN1CCC[C@@H]1/C(=N\OCCN1CCC[C@@H](C(=O)O)C1)c1ccccc1` [An_1999/3_95, O(\N=C(/[C@@H]1N(CCC1)C)\c1ccccc1)CCN1C[C@@H](CCC1)C(O)=O], the pIC50 (ref 10.1021/jm981027k) was 7.222. With `Cc1ccccc1/C(=C\OCCN1CCC[C@@H](C(=O)O)C1)c1ccccc1` [An_1999/3_96, O(\C=C(/c1ccccc1C)\c1ccccc1)CCN1C[C@@H](CCC1)C(O)=O], the pIC50 (ref 10.1021/jm981027k) is recorded as 7.699. For the compound `Cc1ccccc1/C(=C/OCCN1CCC[C@@H](C(=O)O)C1)c1ccccc1` [An_1999/3_97, O(\C=C(\c1ccccc1C)/c1ccccc1)CCN1C[C@@H](CCC1)C(O)=O], the pIC50 (ref 10.1021/jm981027k) is recorded as 7.301. Regarding `Cc1ccccc1/C(=C\OCCN1CCC[C@@H](C(=O)O)C1)c1ccc(F)cc1C` [An_1999/3_99, Fc1cc(C)c(cc1)\C(=C\OCCN1C[C@@H](CCC1)C(O)=O)\c1ccccc1C], the pIC50 (ref 10.1021/jm981027k) is recorded as 7.523.

Turning to `Cc1cc(F)ccc1C(=COCCN1CCC=C(C(=O)O)C1)c1ccc(F)cc1C` [An_1999/3_100, Fc1cc(C)c(cc1)\C(=C\OCCN1CC(=CCC1)C(O)=O)\c1ccc(F)cc1C], the pIC50 (ref 10.1021/jm981027k) is 7.097.

Consider `Cc1ccccc1/C(=C\OCCN1CCC[C@@H](C(=O)O)C1)c1ccccc1Cl` [An_1999/3_101, Clc1ccccc1/C(=C/OCCN1C[C@@H](CCC1)C(O)=O)/c1ccccc1C], for which the pIC50 (ref 10.1021/jm981027k) is recorded as 8. Take `COc1cccc(/C(=C/OCCN2CCC[C@@H](C(=O)O)C2)c2ccccc2C)c1` [An_1999/3_102, O(C)c1cc(ccc1)/C(=C/OCCN1C[C@@H](CCC1)C(O)=O)/c1ccccc1C]: the pIC50 (ref 10.1021/jm981027k) was 7.097. As for `CCc1ccccc1C(=COCCN1CCC[C@@H](C(=O)O)C1)c1ccccc1CC` [An_1999/3_103, O(\C=C(\c1ccccc1CC)/c1ccccc1CC)CCN1C[C@@H](CCC1)C(O)=O], where the note is “ref 10.1021/jm981027k”, the pIC50 is 7.523. Take `CCc1ccccc1C(=COCCN1CCC=C(C(=O)O)C1)c1ccccc1CC` [An_1999/3_104, O(\C=C(\c1ccccc1CC)/c1ccccc1CC)CCN1CC(=CCC1)C(O)=O]: the pIC50 (ref 10.1021/jm981027k) is given as 7.301.

Regarding `O=C(O)C1=CCCN(CCOC=C(c2cccc(F)c2)c2cccc(F)c2)C1` [An_1999/3_105, Fc1cc(ccc1)\C(=C\OCCN1CC(=CCC1)C(O)=O)\c1cc(F)ccc1], the pIC50 (ref 10.1021/jm981027k) is 6.456. `O=C(O)[C@@H]1CCCN(CCO/C=C(/c2ccc(F)cc2F)c2cc(F)ccc2F)C1` [An_1999/3_106, Fc1cc(F)ccc1/C(=C/OCCN1C[C@@H](CCC1)C(O)=O)/c1cc(F)ccc1F]: the pIC50 (ref 10.1021/jm981027k) was 7.301. Regarding `O=C(O)[C@@H]1CCCN(CCOC=C(c2cc(F)ccc2F)c2cc(F)ccc2F)C1` [An_1999/3_107, Fc1ccc(F)cc1\C(=C\OCCN1C[C@@H](CCC1)C(O)=O)\c1cc(F)ccc1F], for the setting “ref 10.1021/jm981027k”, the pIC50 is given as 6.745.

Turning to `O=C(O)[C@@H]1CCCN(CCO/C=C(/c2ccccc2)c2ccccc2Cl)C1` [An_1999/3_108, Clc1ccccc1\C(=C/OCCN1C[C@@H](CCC1)C(O)=O)\c1ccccc1], the pIC50 (ref 10.1021/jm981027k) is given as 7.301.

In the case of `O=C(O)[C@@H]1CCCN(CCOC=C(c2ccccc2Cl)c2ccccc2Cl)C1` [An_1999/3_109, Clc1ccccc1\C(=C\OCCN1C[C@@H](CCC1)C(O)=O)\c1ccccc1Cl], for the setting “ref 10.1021/jm981027k”, the pIC50 was 7.301.

As to `O=C(O)C1=CCCN(CCOC=C(c2ccccc2Cl)c2ccccc2Cl)C1` [An_1999/3_110, Clc1ccccc1\C(=C\OCCN1CC(=CCC1)C(O)=O)\c1ccccc1Cl], the pIC50 (ref 10.1021/jm981027k) was 7.921.

`O=C(O)[C@@H]1CCCN(CCOC=C(c2ccc(F)cc2Cl)c2ccc(F)cc2Cl)C1` [An_1999/3_111, Clc1cc(F)ccc1\C(=C\OCCN1C[C@@H](CCC1)C(O)=O)\c1ccc(F)cc1Cl]: the pIC50 (ref 10.1021/jm981027k) was 7.18. In the case of `O=C(O)[C@@H]1CCCN(CCOC=C(c2cccc(Cl)c2)c2cccc(Cl)c2)C1` [An_1999/3_112, Clc1cc(ccc1)\C(=C\OCCN1C[C@@H](CCC1)C(O)=O)\c1cc(Cl)ccc1], the pIC50 (ref 10.1021/jm981027k) is given as 6.699. Regarding `O=C(O)C1=CCCN(CCOCCC(c2ccccc2)c2ccccc2)C1` [An_1999/4_30, O(CCC(c1ccccc1)c1ccccc1)CCN1CC(=CCC1)C(O)=O], under “ref 10.1021/jm980492e”, the pIC50 is recorded as 7.319. With `O=C(O)[C@@H]1CCCN(CCON=C(c2ccccc2)c2ccccc2)C1` [An_1999/4_(R)-7, O(\N=C(\c1ccccc1)/c1ccccc1)CCN1C[C@@H](CCC1)C(O)=O], for the setting “ref 10.1021/jm980492e”, the pIC50 is 6.863.

`O=C(O)[C@@H]1CCCN(CCCN(c2ccccc2)c2ccccc2)C1` [An_1999/4_(R)-10, OC(=O)[C@@H]1CCCN(C1)CCCN(c1ccccc1)c1ccccc1]: the pIC50 (ref 10.1021/jm980492e) is 5.046. Take `O=C(O)[C@@H]1CCCN(CCCCN(c2ccccc2)c2ccccc2)C1` [An_1999/4_(R)-11, OC(=O)[C@@H]1CCCN(C1)CCCCN(c1ccccc1)c1ccccc1]: the pIC50 (ref 10.1021/jm980492e) is reported as 5.585.
